US11634395B2, “Sulfonamide compound or salt thereof” (Taiho Pharmaceutical Co., Ltd., priority 2016, dated 2023)

Test system: HCC 1806 cells
Test: Cell proliferation inhibitory effect on human breast cancer cell line (crystal violet, 72 hours)
Assay type: cell-based
Conditions: read-out: Cell growth suppression IC50
Experimental: Human derived breast cancer cell line HCC 1806 cells were daily passaged at a cell density not exceeding 80% in ATCC recommended Roswell Park Memorial Institute medium (RPMI-1640) containing 10% fetal bovine serum (FBS). In order to start the test of cell proliferation inhibitory activity, HCC 1806 cells were suspended in the above medium, after seeing at 180 μl in each well of a 96-well flat bottom plate so that the number of cells per well was 2,000, the cells were cultured at 37° C. for 1 day in an incubator containing 5% carbon dioxide gas. On the next day, the test compound was dissolved in DMSO, and 20 μl of a drug additive solution diluted serially with distilled water to 10 times of the final concentration was added to each well of the culture plate of the cells, and the cells were cultured at 37° C. for 72 hours in an incubator containing 5% carbon dioxide gas. […] 100 μL of an extract solution (0.1 N NaH2PO4: 100% ethanol=1:1) was added to each well and mixed, and the mixture was measured at a wavelength of 540 nm using a plate reader (MTP-450 manufactured by Corona Electric Co., Ltd.). […]
T: Absorbance of well to which test compound was added
C: Absorbance of wells to which no test compound was added
B: Absorbance of wells to which no cell suspension was added

Cc1ccc(F)c([C@@H](C)[C@H](NS(=O)(=O)c2ccc(C(F)(F)F)c3c2OCCC3(C)O)c2n[nH]c(=O)o2)c1C (single isomer, unassigned) [Example 225A]
IC50: 600 nM
